Assays:
[1] = system: EGF-stimulated adult primary rat hepatocytes; assay: DNA synthesis ([methyl-3H]-thymidine incorporation) in EGF-stimulated hepatocytes; format: cell-based; details: 72 hours; for dose-response of inhibition of DNA replication: increasing concentrations (4-Me2N-BAVAH 10-50 μM, AN-8 1-5 μM, DAC 1-500 μM)
Experimental: (§1) Hepatocytes (viability >80%) were isolated from male Sprague-Dawley rats by a two-step collagenase perfusion. Cells (0.4×10^5 cells/cm^2) were cultured in MEM/M199 (3:1, v/v), containing 1 mg/ml BSA, 5 μg/ml bovine insulin, 2 mM L-glutamine, antibiotics (7.3 IU/ml benzyl penicillin, 50 μg/ml streptomycin sulphate, 50 μg/ml kanamycin monosulphate and 10 μg/ml sodium ampicillin) and 10% (v/v) fetal calf serum.
(§2) After 4 h, medium was removed and serum-free medium, containing 0.5 μg/ml hydrocortisone and 50 μg/ml EGF, was added and renewed daily.
DAC was dissolved in PBS, 4-Me2N-BAVAH and AN-8 were dissolved in ethanol, to a concentration of 100 mM for DAC and 4-Me2N-BAVAH and 25 mM for AN-8.
(§3) 1) unstimulated cultures, referred to as “negative control” or “−EGF”, where hepatocytes are arrested at the mitogen-dependent R-point. 2) EGF-stimulated cultures, referred to as “positive control” or “+EGF”, in which EGF induces G1/S transition and mitosis. 3) EGF-stimulated cultures treated with DAC and/or in combination with 4-Me2N-BAVAH or AN-8.
DNA replication was measured as incorporation of radioactively labeled thymidine into newly synthesized DNA. Cells were incubated with [methyl-3H]-thymidine (25 Ci/mmol) for 24 hours and harvested at 72 hours in ice-cold PBS, the time point where DNA synthesis in untreated EGF-stimulated cultures is maximal. DNA was precipitated with 30% trichloroacetic acid (TCA) overnight at 4° C. After centrifugation, cells were washed once with 10% TCA and twice with 5% TCA. The pellet was solved in formic acid and radioactively labeled thymidine was measured by liquid scintillation counting.
From the moment of seeding, adult primary rat hepatocytes, stimulated with EGF 4 hours after plating and constantly thereafter, were exposed to different concentrations of 4-Me2N-BAVAH (10 μM, 15 μM, 20 μM, 25 μM and 50 μM), AN-8 (1 μM, 2.5 μM and 5 μM) or DAC (1 μM, 10 μM, 50 μM, 100 μM, 250 μM and 500 μM). [methyl-3H]-Thymidine incorporation was measured at 72 hours.
From the moment of seeding, adult primary rat hepatocytes, stimulated with EGF 4 hours after plating and constantly thereafter, were exposed to different combinations of 4-Me2N-BAVAH and DAC or AN-8 and DAC:
[methyl-3H]-Thymidine incorporation was measured at 72 hours.

[2] = system: EGF-stimulated cultured hepatocytes; assay: Cell morphology by inverse light microscopy; format: cell-based, rat
Experimental: as §1, §2, §3
Cell morphology was analyzed by inverse light microscopy, using an Optiphot Nikon Phase Contrast microscope.

[3] = system: EGF-stimulated adult primary rat hepatocytes; assay: Albumin secretion into culture medium (ELISA); format: cell-based; details: 48-72 hours of culture
Experimental: as §1, with “are” for “were”
After 4 h, medium was removed and serum-free medium, containing 0.5 μg/ml hydrocortisone and 50 μg/ml EGF, is added and renewed daily.
1) EGF-stimulated cultures, referred to as “positive control” or “control”. 2) EGF-stimulated cultures treated with DAC and/or in combination with 4-Me2N-BAVAH or AN-8.
Medium samples were analyzed for their albumin content by an enzyme-linked immunosorbent assay (ELISA) according to Dunn et al. 1991 (Biotechnol Prog 7(3): 237-245).
From the moment of seeding, adult primary rat hepatocytes, stimulated with EGF 4 hours after plating and constantly thereafter, were exposed to 50 μM 4-Me2N-BAVAH, 5 μM AN-8 or 500 μM DAC. Albumin secretion into the culture medium was measured between 48-72 hours of culture (FIG. 7A-C).
From the moment of seeding, adult primary rat hepatocytes, stimulated with EGF 4 hours after plating and constantly thereafter, were exposed to a combination of 25 μM 4-Me2N-BAVAH and 50 μM DAC. Albumin secretion into the culture medium is measured between 48-72 hours of culture (FIG. 8A).

CYP1A1 = CYP1A1 protein expression (immunoblot); format: cell-based, rat; details: increasing concentrations (DAC 1-500 μM, AN-8 1-5 μM); 72 h
Experimental: as §1, with “two step” for “two-step”, “serum. After 4 h, medium was removed and serum-free medium, containing 0.5 μg/ml hydrocortisone and 50 μg/ml EGF, was added and renewed daily. DAC was dissolved in PBS, whereas AN-8 was dissolved in ethanol to a concentration of 100 mM for DAC and 25 mM for AN-8.” for “serum.”
1) EGF-stimulated cultures, referred to as C. 2) EGF-stimulated cultures, exposed to 0.02% v/v ethanol, referred to as S. 3) EGF-stimulated cultures treated with DAC and/or AN-8.
At 72 h, cultured hepatocytes were harvested in ice-cold PBS. Cell pellets were lysed in homogenization buffer, sonicated and left for 1 hour on ice. After centrifugation, the protein concentration in the supernatant was determined. 50 μg proteins were separated by sodium dodecyl sulphate polyacrylamide gel electrophoresis (SDS-PAGE, 7.5%) and transferred to nitrocellulose membranes. Subsequently, membranes are immersed into Ponceau S to examine equal sample loading. […] Proteins were detected by using an enhanced chemiluminescence detection system. […]

hepatoma cell lines = details: cited from earlier work
primary hepatocytes = details: cited from earlier work

Row | Compound | dose-response of inhibition of DNA replication [1] | CYP1A1 protein expression vs untreated hepatocyte cultures (CYP1A1) | apoptosis (hepatoma cell lines) | apoptosis (primary hepatocytes) | also measured
1 | O=C(CCCCCNC(=O)c1ccc(N2CCCC2)cc1)NO [AN-8] | clear dose-response relationship | dose-dependent higher CYP1A1 protein expression | – | – | inhibition of the DNA synthesis ([1]; 5 μM): complete inhibition; cell shape vs untreated control cultures with EGF alone ([2]; 5 μM): retained better the in vivo-like cuboidal shape; inhibition of proliferation (morphological appearance) vs untreated +EGF culture ([2]; 5 μM): clear inhibition of proliferation; increase in albumin secretion compared to control cultures ([3]; 5 μM): 2.1 fold
2 | CCCC(CCC)C(=O)O [valproate] | – | – | induce apoptosis | not | –
3 | CCN(CC)Cc1ccc2cc(COC(=O)Nc3ccc(C(=O)NO)cc3)ccc2c1 [ITF2357] | – | – | induce apoptosis | not | –
4 | Nc1ncn([C@H]2C[C@H](O)[C@@H](CO)O2)c(=O)n1 [DAC, 5-aza-2′-deoxycytidine] | clear dose-response relationship | dose-dependent higher CYP1A1 protein expression | – | – | inhibition of the DNA synthesis ([1]; 500 μM): complete inhibition; cell shape vs untreated control cultures with EGF alone ([2]; 500 μM): retained better the in vivo-like cuboidal shape; inhibition of proliferation (morphological appearance) vs untreated +EGF culture ([2]; 500 μM): clear inhibition of proliferation; increase in albumin secretion compared to control cultures ([3]; 500 μM): 1.8 fold
5 | CC(/C=C/C(=O)NO)=C\[C@@H](C)C(=O)c1ccc(N(C)C)cc1 [TSA, Trichostatin A] | – | – | induce apoptosis | not | –
6 | CN(C)c1ccc(C(=O)NCCCCC(=O)NO)cc1 [4-Me2N-BAVAH, 5-(4-dimethylaminobenzoyl)-aminovaleric acid hydroxamide] | clear dose-response relationship | – | – | – | inhibition of the DNA synthesis ([1]; 50 μM): complete inhibition; increase in albumin secretion compared to control cultures ([3]; 50 μM): 2.4 fold
